Paper PMC11714206, “Massively Parallel Screening of Toll/Interleukin‐1 Receptor (TIR)‐Derived Peptides Reveals Multiple Toll‐Like Receptors (TLRs)‐Targeting Immunomodulatory Peptides” (Advanced Science, 2024)

Molecular target: T1, MyD88^TIR (Homo sapiens, UniProt Q99836)
T1 construct: MyD88 (residues 148–296); 6xHis; made in house; host or cells: E. coli BL21 (DE3)
Experiment: T‐Surf phage library (P8 and P3) selection against MyD88^TIR, four rounds, NGS read counts
Type: binding
Conditions: for P8_MyD88 Rank (after) / P8_MyD88 Rank (before): P8 library; for P3_MyD88 Rank (after) / P3_MyD88 Rank (before): P3 library; for Population: 4th round of selection against MyD88 TIR, share of NGS reads
Protocol: T‐Surf libraries were screened against the immobilized TIR domains of two major human TLR adaptor proteins, MAL^TIR and MyD88^TIR, allowing cross‐species selection of TIR‐binding motifs with 190 946 TIR‐derived peptides in a single binding assay (Scheme 1). Enriched phage pools from the fourth round of selection were analyzed using NGS after barcoding the peptide‐coding regions of the phage pools.
Phage display screening was performed by coating two wells of a 96‐well plate (Maxisorp, Thermo Fisher Scientific) with 100 µL of 5 µg mL^−1 TIR domains overnight; then, the coated wells were blocked with 200 µL of blocking buffer (0.2% BSA in PBS) and set aside for 1 h at 4 °C with gentle shaking. Next, 100 µL of the phage library was added to the wells and incubated for 1 h at room temperature (RT; 20 – 22 °C) with gentle shaking. The plate was washed four times with PBS containing 0.5% Tween‐20; the bound phages were eluted by adding 100 µL of 100 mM HCl to each well. The elute was neutralized with 10 µL of 1.0 M Tris‐HCl (pH 11.0). E. coli TG1 cells were grown to the log phase (A600 = ≈0.6), and 1 mL of the culture was incubated with 100 µL of the eluted phages for 30 min at 37 °C, with shaking at 200 rpm. Next, 1 µL of M13KO7 helper phages was added, followed by incubation for 45 min at 37 °C, with shaking. Subsequently, the cells were transferred to 25 mL of 2× yeast extract tryptone/carbenicillin/kanamycin medium and incubated overnight at 37 °C with shaking at 200 rpm. The amplified phages were precipitated with 20% PEG‐8000/2.5 M NaCl to be used for the next round of selection.
The naïve T‐Surf libraries in P8 and P3 and the enriched phage pools after four rounds were barcoded for NGS as previously described.^[ [59] ^] Briefly, 5 µL of the phage pool was used as a template for 20 cycles of a 50 µL PCR reaction using […] each of forward and reverse barcoded primers and PrimeSTAR Max DNA Polymerase. The PCR products were purified using Expin Gel SV (GeneAll). The NGS samples were quantified using qPCR, following the qPCR Quantification Protocol Guide (KAPA Library Quantification kits for Illumina Sequencing Platform), and qualified using the TapeStation High Sensitivity D1000 ScreenTape (Agilent Technologies). The indexed libraries were further sequenced by Macrogen (Seoul, Republic of Korea) using the NovaSeq platform (Illumina) with 100 bp paired‐end reads. The reads were demultiplexed by barcodes and filtered for an average Phred quality score of at least 30, followed by trimming the flanking consensus sequences using Cutadapt (version 2.3). Peptide sequence populations were analyzed according to the read counts.

[1] = selection against MyD88, rank by count after grouping
[2] = selection against MyD88, rank by count before grouping
[3] = selection against MyD88, rank after grouping
[4] = selection against MyD88, rank before grouping
[5] = P3_MyD88 pool: P3 T-Surf phage library
[6] = P3_MyD88: rank by count after grouping
[7] = P3_MyD88: rank by count before grouping
[8] = selection against MyD88 TIR, rank by count after grouping
[9] = selection against MyD88 TIR, rank by count before grouping
[10] = 4R selection against MyD88, rank after grouping
[11] = 4R selection against MyD88, rank before grouping
[12] = P8_MyD88: rank by NGS read count after grouping
[13] = P8_MyD88: rank by NGS read count before grouping

T1 sequence (Q99836 148-296): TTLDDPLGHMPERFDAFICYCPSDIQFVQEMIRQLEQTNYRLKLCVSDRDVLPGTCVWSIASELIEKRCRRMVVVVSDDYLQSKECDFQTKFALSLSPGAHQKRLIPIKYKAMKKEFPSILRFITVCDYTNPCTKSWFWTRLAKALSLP

Q: What does the source list for DGGWDYLLPNVEGPAC?
A: P8_MyD88 Rank (after) [1]: 760; P8_MyD88 Rank (before) [2]: 2560

Q: Which results are given for DHHLALPRGKASKPEHLG?
A: P3_MyD88 Rank (after) [3]: 525; P3_MyD88 Rank (before) [4]: 1994

Q: For DHHLDLLRGIAIKLEILG, which “P3_MyD88 Rank (after)” value [1] is on record?
A: 722

Q: What about the “P3_MyD88 Rank (before)” value [2] of the same sequence?
A: 1998

Q: Which “P3_MyD88 Rank (after)” value [3] does the source give for DHHLDLPRGKAIKE here?
A: 550

Q: And the “P3_MyD88 Rank (before)” value [4]?
A: 2017

Q: Which Population [5] does the source give for DHHLDLPRGKAIKLEILG here?
A: 0.00437%

Q: For DHHLDLPRGKAIKPAILR, which “Rank (after)” value [6] is on record?
A: 162

Q: And the “Rank (before)” value [7]?
A: 2019

Q: For DHHLDLPRGKAIKPEFW, which “P3_MyD88 Rank (after)” value [8] is on record?
A: 241

Q: What about the “P3_MyD88 Rank (before)” value [9] of the same sequence?
A: 951

Q: What does the source list for DHHLDLPRGKAIKPEIL?
A: Rank (after) [6]: 108; Rank (before) [7]: 953

Q: Which “P8_MyD88 Rank (after)” value [1] does the source give for DHHLDLPRGKAIKPEILG here?
A: 757

Q: What about the “P8_MyD88 Rank (before)” value [2] of the same sequence?
A: 3049

Q: What does the source list for DHHLDLPRGKAIKPEILGH?
A: P3_MyD88 Rank (after) [3]: 483; P3_MyD88 Rank (before) [4]: 2026

Q: With DHHLDLPRGKAIKPEILS as the sequence, how does the Population [5] read?
A: 0.0032%

Q: With DHHLDLPRGKAIKPVILG as the sequence, how does the Population [5] read?
A: 0.00291%

Q: Which Population [5] does the source give for DHHLDLPRGKAIKQEILG here?
A: 0.00495%

Q: How did the Population [5] turn out when DHHLDLPRGKAIKREILG was run?
A: 0.00437%

Q: How did the “Rank (after)” value [6] turn out when DHHLDLPRGKAINRKFW was run?
A: 102

Q: What about the “Rank (before)” value [7] of the same sequence?
A: 355

Q: Which results are given for DHHLDLPRGKAIQPDILG?
A: P3_MyD88 Rank (after) [3]: 554; P3_MyD88 Rank (before) [4]: 2014

Q: With DHHLDLPRGKALKPEMLG as the sequence, how does the “P3_MyD88 Rank (after)” value [8] read?
A: 200

Q: And the “P3_MyD88 Rank (before)” value [9]?
A: 2046

Q: For DHHLDLPRGKALTPEILG, which “P3_MyD88 Rank (after)” value [10] is on record?
A: 657

Q: And the “P3_MyD88 Rank (before)” value [11]?
A: 2012

Q: What does the source list for DHHLDLPRGKANKPEILD?
A: P3_MyD88 Rank (after) [3]: 555; P3_MyD88 Rank (before) [4]: 2035

Q: How did the “P3_MyD88 Rank (after)” value [8] turn out when DHHLDLPRGKEIKPELLG was run?
A: 245

Q: And the “P3_MyD88 Rank (before)” value [9]?
A: 2038

Q: For DHHLDLPRGKPIKREILG, which “P3_MyD88 Rank (after)” value [8] is on record?
A: 244

Q: What about the “P3_MyD88 Rank (before)” value [9] of the same sequence?
A: 2040

Q: How did the “Rank (after)” value [6] turn out when DHHLDLPRGKRLNRKFW was run?
A: 153

Q: What about the “Rank (before)” value [7] of the same sequence?
A: 944

Q: For DHHLDLPRGKSFKPEILG, which “Rank (after)” value [6] is on record?
A: 451

Q: What about the “Rank (before)” value [7] of the same sequence?
A: 1996

Q: Which results are given for DHHLDLPSGKAIKPDILG?
A: Rank (after) [6]: 107; Rank (before) [7]: 2044

Q: Which “P3_MyD88 Rank (after)” value [3] does the source give for DHHLDLPWGKAKKPEILG here?
A: 487

Q: And the “P3_MyD88 Rank (before)” value [4]?
A: 1999

Q: Which results are given for DHHLDLSRGKAIKPAILG?
A: P3_MyD88 Rank (after) [8]: 236; P3_MyD88 Rank (before) [9]: 1997

Q: DHHLDLSRGKSIKPDILG was tested. Which “Rank (after)” value [6] did it give?
A: 435

Q: And the “Rank (before)” value [7]?
A: 2053

Q: What does the source list for DHHLICRVAKRLNRKFW?
A: Rank (after) [6]: 129; Rank (before) [7]: 631

Q: What does the source list for DHHLNLPRGKSVKPEILG?
A: P3_MyD88 Rank (after) [10]: 652; P3_MyD88 Rank (before) [11]: 2057

Q: Which “P3_MyD88 Rank (after)” value [10] does the source give for DHHMDLPRDTAIKPEILG here?
A: 661

Q: And the “P3_MyD88 Rank (before)” value [11]?
A: 2060

Q: DHHMDLTRGKAIKPEILG was tested. Which “P3_MyD88 Rank (after)” value [10] did it give?
A: 616

Q: What about the “P3_MyD88 Rank (before)” value [11] of the same sequence?
A: 2061

Q: Which “P3_MyD88 Rank (after)” value [1] does the source give for DHLDPSHLRKQSGEFG here?
A: 734

Q: What about the “P3_MyD88 Rank (before)” value [2] of the same sequence?
A: 1991

Q: For DHQLDLPRCKAIKPEILG, which “P3_MyD88 Rank (after)” value [3] is on record?
A: 482

Q: And the “P3_MyD88 Rank (before)” value [4]?
A: 2062

Q: With DIADEDLPYLIRLLYSL as the sequence, how does the “Rank (after)” value [12] read?
A: 955

Q: What about the “Rank (before)” value [13] of the same sequence?
A: 3056

Q: For DIEYIHLFWDRLLYSL, which “P8_MyD88 Rank (after)” value [3] is on record?
A: 526

Q: And the “P8_MyD88 Rank (before)” value [4]?
A: 3060

Q: DIQWALQKLMQIMEAF was tested. Which “P8_MyD88 Rank (after)” value [1] did it give?
A: 676

Q: And the “P8_MyD88 Rank (before)” value [2]?
A: 3070

Q: What does the source list for DIVAYVMQKLMKHQVF?
A: Rank (after) (P8_MyD88: rank by count after grouping): 154; Rank (before) (P8_MyD88: rank by count before grouping): 169; Population (P8_MyD88 pool: P8 T-Surf phage library): 0.00848%

Q: Which “P8_MyD88 Rank (after)” value [3] does the source give for DLCDILSQNGIPTFFD here?
A: 534

Q: What about the “P8_MyD88 Rank (before)” value [4] of the same sequence?
A: 2582

Q: How did the “Rank (after)” value [12] turn out when DLLLCVFQTFFARLTE was run?
A: 948

Q: And the “Rank (before)” value [13]?
A: 2592

Q: How did the “P8_MyD88 Rank (after)” value [3] turn out when DLLLSEFQSIFARRTV was run?
A: 531

Q: And the “P8_MyD88 Rank (before)” value [4]?
A: 2593

Q: With DLLRHLIEAFSRMHIN as the sequence, how does the “Rank (after)” value [12] read?
A: 940

Q: What about the “Rank (before)” value [13] of the same sequence?
A: 2389
